Reference: patent publication US6274715A, “Tricyclic erythromycin derivatives” (priority 1997, dated 2001)
Converted amounts (≈) assume the structure as drawn.

Tests used:
Format in all cases: cell-based
[1] = test system: STAPHYLOCOCCUS AUREUS ATCC 6538P; assay: In vitro antibacterial activity, MIC, BHI agar dilution; settings: S. aureus ATCC 6538P, 35-37° C., 20 to 24 hours, unit assumed
[2] = test system: STAPHYLOCOCCUS AUREUS A5177; assay: as above; settings: S. aureus A5177, unit assumed
[3] = test system: STAPHYLOCOCCUS AUREUS A-5278; assay: as above
[4] = test system: STAPHYLOCOCCUS AUREUS CMX 642A; assay: as above; settings: S. aureus CMX 642A, unit assumed
[5] = test system: STAPHYLOCOCCUS AUREUS NCTC10649M; assay: as above; settings: S. aureus NCTC10649M, unit assumed
[6] = test system: STAPHYLOCOCCUS AUREUS CMX 553; assay: as above; settings: S. aureus CMX 553, unit assumed
[7] = test system: STAPHYLOCOCCUS AUREUS 1775; assay: as above; settings: S. aureus 1775, unit assumed
[8] = test system: STAPHYLOCOCCUS EPIDERMIDIS 3519; settings: S. epidermidis 3519; BHI agar; unit assumed
[9] = test system: EN[…] ATCC 8043; assay: In vitro antibacterial activity, MIC, BHI agar dilution; settings: E. faecium ATCC 8043, unit assumed
Procedure, shortened: (§1)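 Twelve successive aqueous dilutions of compound in Brain Heart Infusion agar were inoculated with 1:100 culture dilutions (1:10 for slow growers such as Micrococcus, Streptococcus) by Steers replicator and incubated at 35-37° C for 20 to 24 hours. MIC was the lowest concentration giving no growth, slight haze or sparse colonies versus drug-free control.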

[10] = test system: M[…] ATCC 4698; assay: as above
Procedure, shortened: as §1

[11] = test system: M[…] ATCC 9341; assay: as above; settings: M. luteus ATCC 9341, unit assumed
Procedure, shortened: as §1

[12] = test system: STR[…] 508; assay: as above; settings: S. agalactiae CMX 508, unit assumed
Procedure, shortened: as §1

[13] = test system: STREPTOCOCCUS BOVIS A-5169; assay: as above
[14] = test system: STREPTOCOCCUS PYOGENES EES61; assay: as above
[15] = test system: STREPTOCOCCUS PYOGENES 930; assay: as above; settings: S. pyogenes 930, unit assumed
[16] = test system: STREPTOCOCCUS PYOGENES PIU 2548; assay: as above; settings: S. pyogenes PIU 2548, unit assumed
[17] = test system: ESCHERICHIA COLI JUHL; settings: E. coli JUHL; BHI agar; unit assumed
[18] = test system: ESCHERICHIA COLI SS; assay: In vitro antibacterial activity, MIC, BHI agar dilution; settings: E. coli SS
[19] = test system: ESCHERICHIA COLI DC-2; assay: as above; settings: E. coli DC-2, unit assumed
[20] = test system: ESCHERICHIA COLI H560; assay: as above; settings: E. coli H560, unit assumed
[21] = test system: ESCHERICHIA COLI KNK 437; settings: E. coli KNK 437; BHI agar; unit assumed
[22] = test system: ENTEROBACTER AEROGENES ATCC 13048; assay: In vitro antibacterial activity, MIC, BHI agar dilution; settings: E. aerogenes ATCC 13048, unit assumed
[23] = test system: KLEBSIELLA PNEUMONIAE ATCC 8045; assay: as above; settings: K. pneumoniae ATCC 8045, unit assumed
[24] = test system: PROVIDENCIA STUARTII CMX 640; settings: P. stuartii CMX 640; BHI agar; unit assumed
[25] = test system: PSEUDOMONAS AERUGINOSA BMH10; assay: In vitro antibacterial activity, MIC, BHI agar dilution; settings: P. aeruginosa BMH10, unit assumed
[26] = test system: PSEUDOMONAS AERUGINOSA 5007; assay: as above; settings: P. aeruginosa 5007, unit assumed
[27] = test system: PSEUDOMONAS AERUGINOSA K799/WT; assay: as above; settings: P. aeruginosa K799/WT, unit assumed
[28] = test system: PSEUDOMONAS AERUGINOSA K799/61; assay: as above; settings: P. aeruginosa K799/61, unit assumed
[29] = test system: PSEUDOMONAS CEPACIA 296I; assay: as above; settings: P. cepacia 296I, unit assumed
[30] = test system: ACINETOBACTER CALCOACETICUS CMX 669; assay: as above; settings: A. calcoaceticus CMX 669, unit assumed
[31] = test system: PSEUDOMONAS AERUGINOSA DPHD-5263; assay: as above; settings: P. aeruginosa DPHD-5263, unit assumed
[32] = test system: PSEUDOMONAS AERUGINOSA DPHD-2862; assay: as above; settings: P. aeruginosa DPHD-2862, unit assumed
[33] = test system: CANDIDA ALBICANS CCH 442; assay: as above; settings: C. albicans CCH 442, unit assumed
[34] = test system: MYCOBACTERIUM SMEGMATIS ATCC 114; assay: as above; settings: M. smegmatis ATCC 114, unit assumed
[35] = M. luteus ATCC 4698, unit assumed
[36] = S. pyogenes EES61, unit assumed

| SMILES | MIC [1] [µg/mL] | MIC [2] [µg/mL] | MIC [4] [µg/mL] | MIC [5] [µg/mL] | MIC [6] [µg/mL] | MIC [7] [µg/mL] | MIC [8] [µg/mL] | MIC [9] [µg/mL] | MIC [11] [µg/mL] | MIC [15] [µg/mL] | MIC [16] [µg/mL] | MIC [17] [µg/mL] | MIC [19] [µg/mL] | MIC [20] [µg/mL] | MIC [21] [µg/mL] | MIC [22] [µg/mL] | MIC [23] [µg/mL] | MIC [24] [µg/mL] | MIC [25] [µg/mL] | MIC [26] [µg/mL] | also measured |
| --- | --- | --- | --- | --- | --- | --- | --- | --- | --- | --- | --- | --- | --- | --- | --- | --- | --- | --- | --- | --- | --- |
| CC[C@H]1OC(=O)[C@H](C)C(=O)[C@H](C)[C@@H](O[C@@H]2O[C@H](C)C[C@H](N(C)C)[C@H]2O)[C@](C)(OC)C[C@@H](C)C2=N[C@@H]3CN(Cc4ccncc4)C[C@@H]3N3C(=O)O[C@@]1(C)[C@H]3[C@H]2C [Example 25] | 0.78 (≈ 1.01 µM) | 0.78 (≈ 1.01 µM) | 0.78 (≈ 1.01 µM) | 0.39 (≈ 0.507 µM) | 0.78 (≈ 1.01 µM) | > 100 | 0.78 (≈ 1.01 µM) | 0.1 (≈ 0.13 µM) | 0.1 (≈ 0.13 µM) | > 100 | 0.78 (≈ 1.01 µM) | > 100 | > 100 | 100 (≈ 130 µM) | > 100 | > 100 | > 100 | > 100 | > 100 | > 100 | MIC ([3]; S. aureus A-5278, unit assumed): > 100 µg/mL; MIC [10, 35]: 0.39 µg/mL (≈ 0.507 µM); MIC [12]: 0.1 µg/mL (≈ 0.13 µM); MIC ([13]; S. bovis A-5169, unit assumed): 0.1 µg/mL (≈ 0.13 µM); MIC [14, 36]: 0.05 µg/mL (≈ 0.0649 µM); MIC ([18]; unit assumed): 0.78 µg/mL (≈ 1.01 µM); MIC [27]: 100 µg/mL (≈ 130 µM); MIC [28]: 0.78 µg/mL (≈ 1.01 µM); MIC [29]: > 100 µg/mL; MIC [30]: 100 µg/mL (≈ 130 µM); MIC [31]: > 100 µg/mL; MIC [32]: > 100 µg/mL; MIC [33]: > 100 µg/mL; MIC [34]: 3.1 µg/mL (≈ 4.03 µM) |
| CC[C@H]1OC(=O)[C@H](C)C(=O)[C@H](C)[C@@H](O[C@@H]2O[C@H](C)C[C@H](N(C)C)[C@H]2O)[C@](C)(OC)C[C@@H](C)C2=NC3CN(CCOc4ccccc4)CC3N3C(=O)O[C@@]1(C)[C@H]3[C@H]2C (stereo partly shown) [Example 128] | 0.39 (≈ 0.488 µM) | 0.39 (≈ 0.488 µM) | 0.39 (≈ 0.488 µM) | 0.39 (≈ 0.488 µM) | 0.39 (≈ 0.488 µM) | > 100 | 0.39 (≈ 0.488 µM) | 0.1 (≈ 0.125 µM) | 0.05 (≈ 0.0626 µM) | > 100 | 0.78 (≈ 0.976 µM) | 100 (≈ 125 µM) | > 100 | > 100 | > 100 | > 100 | > 100 | > 100 | > 100 | > 100 | MIC ([3]; S. aureus A-5278, unit assumed): > 100 µg/mL; MIC [10, 35]: 0.39 µg/mL (≈ 0.488 µM); MIC ([13]; S. bovis A-5169, unit assumed): ≤ 0.005 µg/mL; MIC [14, 36]: ≤ 0.005 µg/mL; MIC ([18]; unit assumed): 1.56 µg/mL (≈ 1.95 µM); MIC [27]: > 100 µg/mL; MIC [28]: 6.2 µg/mL (≈ 7.76 µM); MIC [29]: > 100 µg/mL; MIC [30]: 100 µg/mL (≈ 125 µM); MIC [31]: > 100 µg/mL; MIC [32]: > 100 µg/mL; MIC [33]: > 100 µg/mL; MIC [34]: 1.56 µg/mL (≈ 1.95 µM) |
| CC[C@H]1OC(=O)[C@H](C)C(=O)[C@H](C)[C@@H](O[C@@H]2O[C@H](C)C[C@H](N(C)C)[C@H]2O)[C@](C)(OC)C[C@@H](C)C2=NC(COCc3ccc(Cl)cc3)C(COCc3ccc(Cl)cc3)N3C(=O)O[C@@]1(C)[C@H]3[C@H]2C (stereo partly shown) [Example 147] | 1.56 (≈ 1.65 µM) | 1.56 (≈ 1.65 µM) | 1.56 (≈ 1.65 µM) | 1.56 (≈ 1.65 µM) | 1.56 (≈ 1.65 µM) | 12.5 (≈ 13.2 µM) | 1.56 (≈ 1.65 µM) | 0.78 (≈ 0.824 µM) | 0.39 (≈ 0.412 µM) | 3.1 (≈ 3.27 µM) | 3.1 (≈ 3.27 µM) | > 100 | > 100 | > 100 | > 100 | > 100 | > 100 | > 100 | > 100 | > 100 | MIC ([3]; S. aureus A-5278, listed as Ex 147, unit assumed): 6.2 µg/mL (≈ 6.55 µM); MIC ([10]; M. luteus ATCC 4698, listed as Ex 147, unit assumed): 3.1 µg/mL (≈ 3.27 µM); MIC [12]: 0.78 µg/mL (≈ 0.824 µM); MIC ([13]; S. bovis A-5169, listed as Ex 147, unit assumed): 0.39 µg/mL (≈ 0.412 µM); MIC ([14]; S. pyogenes EES61, listed as Ex 147, unit assumed): 0.78 µg/mL (≈ 0.824 µM); MIC ([18]; listed as Ex 147, unit assumed): > 100 µg/mL; MIC [27]: > 100 µg/mL; MIC [29]: > 100 µg/mL; MIC [30]: > 100 µg/mL; MIC [31]: > 100 µg/mL; MIC [32]: > 100 µg/mL; MIC [33]: 50 µg/mL (≈ 52.8 µM); MIC [34]: 1.56 µg/mL (≈ 1.65 µM) |
